Laboratory results reported in patent publication US8057810B2, “Peptide substance revealing an immunogeroprotective effect, pharmaceutical composition on its base and the method of its application” (priority 2006, dated 2011).
Residues, ends and D or L forms follow the SMILES beside them.

System: thymus epithelium cells, line VTEC2.H/S
Assay: Proliferation of thymus epithelium cells in ageing cultures (3H-thymidin)
Type: cell-based, human
Set-up: unit not given here
Description: The study was staged in vitro in the culture of thymus epithelium cells, which were represented by cells of suspension line VTEC2.H/S, obtained by transforming thymus epithelial cells of human embryo thymus with the material containing SV40 virus, and subsequent cloning of transformed cells.
Peptide H-Glu-Asp-Pro-OH was introduced into cell cultures in successive dilutions to ultimate concentrations of 2, 20 and 200 ng/ml. Proliferation of thymus epithelium cells subjected to 1, 4 and 7 passages was estimated using a radiometrical method, judging by the content of ^3H-thymidin.

**Q.** Which results are given for `N[C@@H](CCC(=O)O)C(=O)N[C@@H](CC(=O)O)C(=O)N1CCC[C@H]1C(=O)O` [Peptide H-Glu-Asp-Pro-OH, glutamyl-aspartyl-proline] (H-Glu-Asp-Pro-OH)?
**A.** Proliferation of thymus epithelial cells (3H-thymidin content) (2 ng/ml, 1st passage): 1480 ± 89; Proliferation of thymus epithelial cells (3H-thymidin content) (2 ng/ml, 4th passage): 730 ± 54; Proliferation of thymus epithelial cells (3H-thymidin content) (2 ng/ml, 7th passage): 705 ± 46; Proliferation of thymus epithelial cells (3H-thymidin content) (20 ng/ml, 1st passage): 1585 ± 95; Proliferation of thymus epithelial cells (3H-thymidin content) (20 ng/ml, 4th passage): 680 ± 48; Proliferation of thymus epithelial cells (3H-thymidin content) (20 ng/ml, 7th passage): 680 ± 41; Proliferation of thymus epithelial cells (3H-thymidin content) (200 ng/ml, 1st passage): 1530 ± 91; Proliferation of thymus epithelial cells (3H-thymidin content) (200 ng/ml, 4th passage): 760 ± 58; Proliferation of thymus epithelial cells (3H-thymidin content) (200 ng/ml, 7th passage): 795 ± 49
